Test results from patent US10238658B2, “1-pyrazolyl-3-(4-((2-anilinopyrimidin-4-yl) oxy) napththalen-1-yl) ureas as p38 MAP kinase inhibitors” (Respivert Limited, priority 2011, dated 2019).

Tests used:
[1] = tested on: TNFα; test: LPS-induced TNFα release in THP-1 cells; assay type: cell-based; settings: Homo sapiens, THP-1, THP1 cells
Method: THP-1 cells, a human monocytic cell line, were stimulated with 3 μg/mL of LPS (from E. Coli; 0111:B4, Sigma) for 4 hr and the supernatant collected for determination of the TNFα concentration by sandwich ELISA (Duo-set, R&D systems). The inhibition of TNFα production was calculated at each concentration by comparison with vehicle control.

[2] = tested on: TNFα; test: LPS-induced TNFα release in d-U937 cells; assay type: cell-based; settings: Homo sapiens, dU937, dU937 cells; relative to 10 μg/mL BIRB796; read-out: LPS Induced Release TNFα REC50 (dU937)
Summary of the method: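 U937 cells differentiated with PMA (100 ng/mL, 48–72 hr) were pre-incubated with compound for 2 hr, then stimulated with E. coli O111:B4 LPS (0.1 μg/mL) for 4 hr. Supernatant cytokine measured by sandwich ELISA; inhibition vs vehicle control at each concentration, REC50 taken from the concentration-response curve.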

[3] = tested on: IL-8; test: Rhinovirus-induced IL-8 release in BEAS2B cells; assay type: cell-based; settings: Homo sapiens, BEAS-2B
Summary of the method: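 BEAS2B cells infected with HRV RV16 at MOI 5 for 2 h at 33 °C, washed, then cultured 72 h; compounds given 2 h before infection and again after washout. IL-8 measured in supernatant by ELISA; surface ICAM-1 by cell-based ELISA (OD450–655), normalised to crystal violet cell count (OD595).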

[4] = tested on: HRV16; test: HRV16 induced CPE in MRC5 cells; assay type: cell-based; settings: Human rhinovirus sp.; for inhibition at 0.04 µg/mL: HRV16, MRC5, at 0.04 μg/mL, read-out: HRV CPE (MRC5) % inhibition
Method: The supernatants were aspirated, and then fresh media added followed by incubation for 4 days. Where appropriate, cells were pre-incubated with compound or DMSO for 2 hr, and the compounds and DMSO added again after washout of the virus.
The percentage inhibition for each well was calculated. The IC50 value was calculated from the concentration-response curve generated by the serial dilutions of the test compounds.

[5] = tested on: RSV A2; test: In vitro RSV virus load (F-protein ELISA) in primary bronchial epithelial cells; assay type: cell-based, respiratory syncytical virus; settings: human respiratory syncytial virus, Primary bronchial epithelial cell; for inhibition at 0.04 µg/mL: at 0.04 μg/mL, read-out: RSV (F-Elisa) (HBEC) % inhibition
Method: Normal human bronchial epithelial cells (NHBEC) grown in 96 well plates were infected with RSV A2 (Strain A2, HFA, Salisbury, UK) at an MOI of 0.001 in the LHC8 Media:RPMI-1640 (50:50) containing 15 mM magnesium chloride and incubated for 1 hr at 37° C. for adsorption. The cells were then washed with PBS (3×200 μL), fresh media (200 μL) was added and incubation continued for 4 days. Where appropriate, cells were pre-incubated with the compound or DMSO for 2 hr, and then added again after washout of the virus.
The cells were fixed with 4% formaldehyde in PBS solution (50 μL) for 20 min, washed with washing buffer (3×200 μL; PBS including 0.5% BSA and 0.05% Tween-20) and incubated with blocking solution (5% condensed milk in PBS) for 1 hr. Cells were then washed with washing buffer (3×200 μL) and incubated for 1 hr at RT with anti-RSV (2F7) F-fusion protein antibody (40 μL; mouse monoclonal, lot 798760, Cat. No. ab43812, Abcam) in 5% BSA in PBS-tween). After washing, cells were incubated with an HRP-conjugated secondary antibody solution (50 μL) in 5% BSA in PBS-Tween (lot 00053170, Cat.No. P0447, Dako) and then TMB substrate (50 μL; substrate reagent pack, lot 269472, Cat. No. DY999, R&D Systems, Inc.) was added. This reaction was stopped by the addition of 2N H2SO4 (50 μL) and the resultant signal was determined colorimetrically (OD: 450 nm with a reference wavelength of 655 nm) in a microplate reader (Varioskan® Flash, ThermoFisher Scientific).
After washing with washing buffer, 1% SDS in distilled water (100 μL) was added to each well, and plates were shaken lightly on the shaker for 1 hr prior to reading the absorbance at 595 nm. The measured OD450-655 readings were corrected to the cell number by dividing the OD450-655 by the OD595 readings. The percentage inhibition for each well was calculated and the IC50 value was calculated from the concentration-response curve generated from the serial dilutions of compound.

[6] = tested on: PBMC; test: Cell mitosis assay; assay type: cell-based; settings: Homo sapiens; for inhibition at 5 µg/mL: read-out: Mitosis Assay % inhibition in PBMC Cells at concn 5 μg/mL
Summary of the method: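 PBMCs from healthy donors, stimulated 48 hr with 2% PHA, then exposed 20 hr to test compounds; demecolcine 0.1 μg/mL added 2 hr before harvest for metaphase arrest. Cells fixed/permeabilised, stained with anti-phospho-histone 3 and propidium iodide; mitotic cells counted by flow cytometry gated on lymphocytes.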

[7] = tested on: d-U937 cells; test: Cell viability: MTT assay; assay type: cell-based, human; settings: 1 μg/mL
Method: Differentiated U937 cells were pre-incubated with each test compound (final concentration 1 μg/mL or 10 μg/mL in 200 μL media indicated below) under two protocols: the first for 4 hr in 5% FCS RPMI1640 media and the second in 10% FCS RPMI1640 media for 24 h. The supernatant was replaced with new media (200 μL) and MTT stock solution (10 μL, 5 mg/mL) was added to each well. After incubation for 1 hr the media were removed, DMSO (200 μL) was added to each well and the plates were shaken lightly for 1 hr prior to reading the absorbance at 550 nm. The percentage loss of cell viability was calculated for each well relative to vehicle (0.5% DMSO) treatment. Consequently an apparent increase in cell viability for drug treatment relative to vehicle is tabulated as a negative percentage.

| SMILES | IC50 [1] [nM] | EC50 [2] [nM] | IC50 ([3]; BEAS2B cells, HRV-16) [nM] | inhibition at 0.04 µg/mL [4] [%] | IC50 ([4]; HRV16, MRC5 cells, HRV-16) [nM] | inhibition at 0.04 µg/mL [5] [%] | IC50 ([5]; read-out: RSV (F-Elisa) (HBEC) IC50) [nM] | inhibition at 1 µg/mL ([6]; read-out: Mitosis Assay % inhibition in PBMC Cells at concn 1 μg/mL) [%] | inhibition at 5 µg/mL [6] [%] | inhibition at 0.04 µg/mL ([3]; at 0.04 μg/mL, read-out: HRV IL-8 (BEAS2B) % inhibition) [%] | MTT Assay Cell viability at time point in d-U937 Cells 4 h ([7]; 4 h) | MTT Assay Cell viability at time point in d-U937 Cells 24 h ([7]; 24 h) |
| --- | --- | --- | --- | --- | --- | --- | --- | --- | --- | --- | --- | --- |
| Cc1ccc(-n2nc(C(C)(C)C)cc2NC(=O)Nc2ccc(Oc3ccnc(Nc4ccccc4)n3)c3ccccc23)cc1 [Example 1, 1-(3-(tert-Butyl)-1-(p-tolyl)-1H-pyrazol-5-yl)-3-(4-(2-(phenylamino)pyrimidin-4-yloxy)naphthalen-1-yl)urea] | 3.4 | 2.3 | 0.036 | 57 | 17.1 | 85 | 15.4 | 13.7 | 31.3 |  |  |  |
| Cc1ccc(-n2nc(C(C)(C)C)cc2NC(=O)Nc2ccc(Oc3ccnc(Nc4cccc(O)c4)n3)c3ccccc23)cc1 [Example 2, 1-(3-(tert-Butyl)-1-(p-tolyl)-1H-pyrazol-5-yl)-3-(4-((2-((3-hydroxyphenyl)amino)pyrimidin-4-yl)oxy)naphthalen-1-yl)urea] | 2.8 | 2.4 |  | 5 |  | 42 |  |  | 70.6 | 100 | −ve (−ve and +ve indicate the value is below and above respectively, the no significant effect threshold defined as 30% inhibition at 1 μg/mL at the time point indicated) | −ve (−ve and +ve indicate the value is below and above respectively, the no significant effect threshold defined as 30% inhibition at 1 μg/mL at the time point indicated) |
